Measured values published in patent publication US11365192B2, “Pyridine compound substituted with azole” (TAISHO PHARMACEUTICAL CO., LTD., priority 2017, dated 2022).

Columns and labels:
human CYP4F2 = human CYP4F2 (Homo sapiens (Human), UniProt P78329); experiment: Inhibition test against 20-HETE producing enzyme CYP4F2 (luciferine derivative, luminescence); format: biochemical
How it was run: (§1)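 E. coli membranes (100 μg/mL protein) expressing human enzyme, room temperature 60 min, luciferin-derivative luminescence; IC50 from % inhibition. CYP4F2: 50 mM KPO4 pH 7.4, 2.5 μM substrate, 1 mM NADPH. CYP4A11: 100 mM Tris-HCl pH 7.5, 60 μM substrate, NADP+/glucose 6-phosphate/G6PDH regenerating system, 3.3 mM MgCl2.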

human CYP4A11 = human CYP4A11 (Homo sapiens (Human), UniProt Q02928); experiment: Inhibition test against 20-HETE producing enzyme CYP4A11 (luciferine derivative, luminescence); format: biochemical
Chain of human CYP4A11 (Q02928 5-519): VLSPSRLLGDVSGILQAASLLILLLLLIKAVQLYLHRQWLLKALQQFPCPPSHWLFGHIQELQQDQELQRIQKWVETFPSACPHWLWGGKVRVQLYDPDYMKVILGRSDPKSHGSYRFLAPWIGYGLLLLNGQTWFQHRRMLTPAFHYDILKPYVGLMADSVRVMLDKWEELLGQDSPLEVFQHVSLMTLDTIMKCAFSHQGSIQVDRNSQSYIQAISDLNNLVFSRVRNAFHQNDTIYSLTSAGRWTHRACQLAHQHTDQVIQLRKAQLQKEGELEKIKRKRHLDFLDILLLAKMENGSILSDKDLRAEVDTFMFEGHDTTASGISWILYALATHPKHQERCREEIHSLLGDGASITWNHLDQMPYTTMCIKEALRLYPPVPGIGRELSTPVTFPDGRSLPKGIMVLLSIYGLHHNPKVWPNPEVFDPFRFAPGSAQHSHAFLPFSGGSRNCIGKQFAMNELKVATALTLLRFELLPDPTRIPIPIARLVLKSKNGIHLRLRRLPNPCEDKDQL
How it was run: as §1

[1] = E. coli membrane fraction expressing human CYP4F2, 2.5 μM luciferine derivative, room temperature 60 minutes
[2] = E. coli membrane fraction expressing human CYP4A11, 60 μM luciferine derivative, room temperature 60 minutes
[3] = human CYP4F2, luciferine derivative, luminescence
[4] = human CYP4A11, luciferine derivative, luminescence

Chain of human CYP4F2 (P78329 5-520): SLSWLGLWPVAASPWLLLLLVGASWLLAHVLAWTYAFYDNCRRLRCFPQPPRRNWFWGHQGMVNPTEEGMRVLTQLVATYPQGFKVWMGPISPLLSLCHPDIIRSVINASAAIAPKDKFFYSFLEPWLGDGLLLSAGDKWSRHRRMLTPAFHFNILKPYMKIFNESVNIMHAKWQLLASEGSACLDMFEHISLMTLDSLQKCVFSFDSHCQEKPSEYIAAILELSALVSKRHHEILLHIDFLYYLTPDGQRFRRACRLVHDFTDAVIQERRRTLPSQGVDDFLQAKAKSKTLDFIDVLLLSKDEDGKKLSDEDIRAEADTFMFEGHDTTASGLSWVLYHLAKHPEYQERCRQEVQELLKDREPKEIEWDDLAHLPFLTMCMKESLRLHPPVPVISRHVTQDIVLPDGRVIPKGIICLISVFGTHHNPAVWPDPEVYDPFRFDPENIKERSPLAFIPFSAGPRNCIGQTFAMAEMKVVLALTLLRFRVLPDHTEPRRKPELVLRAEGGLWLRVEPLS

SMILES | IC50 (human CYP4F2; [1]) [nM] | IC50 (human CYP4A11; [2]) [nM] | IC50 (human CYP4F2; [3]) [nM] | IC50 (human CYP4A11; [4]) [nM]
CNS(=O)(=O)c1cccc(COc2ccc(-c3ccn[nH]3)nc2)c1 [Example 23-1, N-Methyl-3-[[6-(1-H-pyrazol-5-yl)-3-pyridinyl]oxymethyl]benzenesulfonamide] | 220 | 36 |  | 
O=C(O)[C@H]1CCc2ccc(CCOc3ccc(-c4ccn[nH]4)nc3)cc2O1 [Example 71-22-1] |  |  | 310 | 250
O=C(O)Cc1cccc(CCOc2ccc(-c3ccn[nH]3)nc2)c1 [Example 1-14] | 7800 | 21 |  | 
O=C(O)C1CC1c1cccc(COc2ccc(-c3ccn[nH]3)nc2)c1F (stereo not shown) [Example 70-3, 2-[2-Fluoro-3-[[6-(1H-pyrazol-5-yl)pyridin-3-yl]oxymethyl]phenyl]cyclopropane-1-carboxylic Acid] |  |  | 280 | 28
CC(C)(COc1ccc(CCCOc2ccc(-c3ccn[nH]3)nc2)cn1)C(=O)O [Example 71-39] |  |  | 51 | 780
O=C(O)C1(CCCCCCCOc2ccc(-c3ccn[nH]3)nc2)CCCC1 [Example 1-45] | 19 | 46 |  | 
CS(=O)(=O)NCC12CC(COc3ccc(-c4ccn[nH]4)nc3)(C1)C2 [Example 58-1, N-[[3-[[6-(1H-Pyrazol-5-yl)-3-pyridinyl]oxymethyl]-1-bicyclo[1.1.1]pentanyl]methyl]methanesulfonamide] | 120 | 580 |  | 
NS(=O)(=O)CCCCCOc1ccc(-c2ccn[nH]2)nc1 [Example 11-4, 5-[[6-(1H-Pyrazol-5-yl)-3-pyridinyl]oxy]-1-pentanesulfonamide] | 1300 | 4500 |  | 
O=C(O)c1cccc(CCOc2ccc(-c3ccn[nH]3)nc2)c1 [Example 1-6] | 2300 | 340 |  | 
O=C(O)C1COc2cc(COc3ccc(-c4ccn[nH]4)nc3)ccc2C1 (stereo not shown) [Example 71-23] |  |  | 550 | 50
CN(C)C(=O)CCc1cccc(COc2ccc(-c3ccn[nH]3)nc2)c1 [Example 42-9] | 76 | 67 |  | 
CC(C)(OCCCCCCCOc1ccc(-c2cnco2)nc1)C(=O)O [Example 76-1, 2-Methyl-2-[7-[6-(1,3-oxazol-5-yl)pyridin-3-yl]oxyheptoxy]propanoic Acid] |  |  | 1500 | 740
O=C(O)Cc1ccc(CCOc2ccc(-c3ccn[nH]3)nc2)cc1 [Example 1-13] | 2700 | 31 |  | 
CCC(CC)(CCCCOc1ccc(-c2ccn[nH]2)nc1)C(=O)O [Example 1-64, 2,2-Diethyl-6-[[6-(1H-pyrazol-5-yl)-3-pyridinyl]oxy]hexanoic Acid] | 7500 | 28 |  | 
O=C(O)c1ccc(-c2cccc(COc3ccc(-c4ccn[nH]4)nc3)c2)cc1 [Example 31-2] | 100 | 9.8 |  | 
O=C(O)C1CC(CCOc2ccc(-c3ccn[nH]3)nc2)C1 (stereo not shown) [Example 1-26] | 14000 | 43 |  | 
O=C(CCC1(C(=O)O)CCCC1)N1CCC(CCOc2ccc(-c3ccn[nH]3)nc2)CC1 [Example 3-3] | 2300 | 390 |  | 
CNC(=O)C(C)c1cccc(COc2ccc(-c3ccn[nH]3)nc2)c1 (stereo not shown) [Example 42-23] |  |  | 55 | 160
O=C(O)C1CCCC(COc2ccc(-c3ccn[nH]3)nc2)C1 (stereo not shown) [Example 1-54] | 3400 | 57 |  | 

SMILES | IC50 (human CYP4F2; [1]) [nM] | IC50 (human CYP4A11; [2]) [nM] | IC50 (human CYP4F2; [3]) [nM] | IC50 (human CYP4A11; [4]) [nM]
Oc1cc(F)cc(COc2ccc(-c3ccn[nH]3)nc2)c1 [Example 12-3] | 25 | 290 |  | 
O=C(O)c1cccc(CCCOc2ccc(-c3ccn[nH]3)nc2)n1 [Example 29-1, 6-[3-[[6-(1H-Pyrazol-5-yl)-3-pyridinyl]oxy]propyl]-2-pyridinecarboxylic Acid] | 4000 | 650 |  | 
O=C(O)C1CCCN(c2cccc(COc3ccc(-c4ccn[nH]4)nc3)c2)C1 (stereo not shown) [Example 34-2] | 11000 | 50 |  | 
CC(C)(CCCCCOc1ccc(-c2ccn[nH]2)nc1)C(=O)O [Example 1-43, 2,2-Dimethyl-7-[[6-(1H-pyrazol-5-yl)-3-pyridinyl]oxy]heptanoic Acid] | 18000 | 46 |  | 
O=C(O)CCCCCCCCOc1ccc(-c2ccn[nH]2)nc1 [Example 1-51] | 200 | 54 |  | 
O=C(O)c1nc2c(o1)CCN(C(=O)c1cccc(COc3ccc(-c4ccn[nH]4)nc3)c1)C2 [Example 45-46] |  |  | 54 | 160
CC(C)(Oc1cccc(COc2ccc(-c3ccn[nH]3)nc2)c1)C(=O)O [Example 18-5] | 5200 | 32 |  | 
CC(=O)N1CCC(CCCCCCOc2ccc(-c3ccn[nH]3)nc2)(C(=O)O)CC1 [Example 3-5] | 3000 | 2200 |  | 
O=C(O)/C=C/c1ccc(CCOc2ccc(-c3ccn[nH]3)nc2)cc1 [Example 70-6] |  |  | 47 | 76
O=C(O)c1cc2n(n1)CCN(C(=O)c1cccc(COc3ccc(-c4ccn[nH]4)nc3)c1)C2 [Example 45-45] |  |  | 1600 | 1700
O=S(=O)(NCCc1c[nH]c2ccccc12)c1ccc(COc2ccc(-c3ccn[nH]3)nc2)cc1 [Example 23-3] | 49 | 1700 |  | 
O=C(O)CCc1cccc(COc2ccc(-c3ccn[nH]3)nc2)c1 [Example 22-4] | 1400 | 20 |  | 
O=C(c1ccc(=O)[nH]c1)N1CCC[C@@H](COc2ccc(-c3ccn[nH]3)nc2)C1 [Example 41-3] | 4300 | 570 |  | 
O=C(NC12CC(C(=O)O)(C1)C2)c1cccc(COc2ccc(-c3ccn[nH]3)nc2)c1 [Example 45-23] |  |  | 3900 | 710
NC(=O)c1cc(COc2ccc(-c3ccn[nH]3)nc2)ccn1 [Example 44-7, 4-[[6-(1H-Pyrazol-5-yl)-3-pyridinyl]oxymethyl]-2-pyridinecarboxamide] |  |  | 85 | 3800
CN(CCC(C)(C)C(=O)O)S(=O)(=O)c1cccc(COc2ccc(-c3ccn[nH]3)nc2)c1 [Example 21-5] | 430 | 29 |  | 
O=C(O)c1ccccc1CCCOc1ccc(-c2ccn[nH]2)nc1 [Example 1-10] | 27000 | 4200 |  | 
O=C(CCCC1(C(=O)O)CCCC1)N1CCC(COc2ccc(-c3ccn[nH]3)nc2)CC1 [Example 47-1, 1-[4-Oxo-4-[4-[[6-(1H-pyrazol-5-yl)-3-pyridinyl]oxymethyl]-1-piperidinyl]butyl]-1-cyclopentanecarboxylic Acid] | 150 | 830 |  | 
OC1(c2cccc(COc3ccc(-c4ccn[nH]4)nc3)c2)CCCC1 [Example 27-4] | 120 | 110 |  | 

SMILES | IC50 (human CYP4F2; [1]) [nM] | IC50 (human CYP4A11; [2]) [nM] | IC50 (human CYP4F2; [3]) [nM] | IC50 (human CYP4A11; [4]) [nM]
O=C(CCCC1(C(=O)O)CCCC1)N1CCC[C@@H](COc2ccc(-c3ccn[nH]3)nc2)C1 [Example 3-2] | 440 | 120 |  | 
O=C(O)[C@@H]1CCCN1C(=O)c1cccc(COc2ccc(-c3ccn[nH]3)nc2)c1 [Example 45-34] |  |  | 17000 | 220
O=C(O)C1CCN(C(=O)c2cccc(COc3ccc(-c4ccn[nH]4)nc3)c2)C1 (stereo not shown) [Example 45-36] |  |  | 1100 | 230
O=C(O)CCc1ccc(CCCOc2ccc(-c3ccn[nH]3)nc2)cc1 [Example 8-7] | 280 | 440 |  | 
O=S(=O)(NCc1cccc(COc2ccc(-c3ccn[nH]3)nc2)c1)C(F)(F)F [Example 65-1, 1,1,1-Trifluoro-N-[[3-[[6-(1-H-pyrazol-5-yl)-3-pyridinyl]oxymethyl]phenyl]methyl]methanesulfonamide] | 63 | 8.1 |  | 
O=C(O)C1(CCCCCCOc2ccc(-c3ccn[nH]3)nc2)CCCCC1 [Example 1-44] | 510 | 110 |  | 
O=C(O)c1ccc(COc2ccc(-c3ccn[nH]3)nc2)cc1F [Example 22-18] | 18000 | 35 |  | 
O=C(O)CCCc1ccccc1COc1ccc(-c2ccn[nH]2)nc1 [Example 1-11] | 43000 | 24 |  | 
O=C(O)CCc1cccc(COc2cnc(-c3ccn[nH]3)c(F)c2)c1 [Example 38-1, 3-[3-[[5-Fluoro-6-(1H-pyrazol-5-yl)-3-pyridinyl]oxymethyl]phenyl]propanoic Acid] | 1100 | 20 |  | 
CC(C)(COc1cccc(CCOc2ccc(-c3ccn[nH]3)nc2)n1)C(=O)O [Example 71-37] |  |  | 3500 | 160
O=C(O)[C@H]1CCCN(S(=O)(=O)c2cccc(COc3ccc(-c4ccn[nH]4)nc3)c2)C1 [Example 69-4-2] |  |  | 670 | 40
O=C(CCc1cccc(COc2ccc(-c3ccn[nH]3)nc2)c1)N1CCCC1 [Example 42-13] | 15 | 150 |  | 
O=C(O)c1nc2c(o1)CN(C(=O)c1cccc(COc3ccc(-c4ccn[nH]4)nc3)c1)C2 [Example 45-42] |  |  | 34 | 450
O=C(O)C1CC1c1ccc(F)c(CCOc2ccc(-c3ccn[nH]3)nc2)c1 (stereo not shown) [Example 74-6] |  |  | 16000 | 35
O=C(O)[C@H]1CCc2ccc(COc3ccc(-c4ccn[nH]4)nc3)cc2O1 [Example 69-3-2] |  |  | 300 | 220
CC(C(=O)O)c1cccc(COc2ccc(-c3ccn[nH]3)nc2)c1 (stereo not shown) [Example 24-1, Sodium 2-[3-[[6-(1H-pyrazol-5-yl)-3-pyridinyl]oxymethyl]phenyl]propanoate] | 13000 | 16 |  | 
O=C(O)c1cccc(CCCCCOc2ccc(-c3ccn[nH]3)nc2)n1 [Example 71-14] |  |  | 1300 | 150
CN(C)C(=O)[C@H]1C[C@](O)(c2cc(COc3ccc(-c4ccn[nH]4)nc3)ccc2F)C1 [Example 42-22] |  |  | 99 | 270
